Measured values reported in patent publication US4476120A, “Thiolic derivatives of erythromycin having therapeutic activity, and pharmaceutical compositions containing them” (Sigma Tau Indistrie Farmaceutiche Riunites, p.A, priority 1982, dated 1984).
Values after ≈ are worked out from the molar mass of the structure shown. Counter-ions that a name gives are not always drawn. Like-named read-outs stand apart in the source and are kept apart here.

What was measured:
C. diphtheriae SS 19 = type: cell-based; conditions: Brain Heart Infusion, estolate and RV11-RV15 previously hydrolized, unit assumed
H. influentiae SS 02 = type: cell-based; conditions: Brain Heart Infusion, estolate and RV11-RV15 previously hydrolized, unit assumed
S. lutea ATCC 9341 = type: cell-based; conditions: Brain Heart Infusion, estolate and RV11-RV15 previously hydrolized, unit assumed
S. heidelberg SS 18 = type: cell-based; conditions: Brain Heart Infusion, estolate and RV11-RV15 previously hydrolized, unit assumed
E. aerogenes SS 011 = type: cell-based; conditions: Brain Heart Infusion, estolate and RV11-RV15 previously hydrolized, unit assumed
Acute toxicity = type: in vivo; conditions: mouse, in vivo
Protocol: The acute toxicity was assessed in Swiss white mice by oral and intravenous route. The LD50 values have been calculated by the methods of Probits, starting from the mortality recorded 10 days after the treatment.

[1] = tested on: Strept. haemolyticus SS 18; type: cell-based; conditions: Brain Heart Infusion, estolate and RV11-RV15 previously hydrolized, unit assumed
B. anthranis SS 09 = type: cell-based; conditions: B. anthranis SS 09 (14 bis); Brain Heart Infusion; estolate and RV11-RV15 previously hydrolized; unit assumed
C. albicans SS 04 = type: cell-based; conditions: Brain Heart Infusion, estolate and RV11-RV15 previously hydrolized, unit assumed
Staph. aureus SS 09 = type: cell-based; conditions: Brain Heart Infusion, estolate and RV11-RV15 previously hydrolized, unit assumed
B. anthranis SS 08 = type: cell-based; conditions: Brain Heart Infusion, estolate and RV11-RV15 previously hydrolized, unit assumed
Pr. vulgaris SS 10 = type: cell-based; conditions: Brain Heart Infusion, estolate and RV11-RV15 previously hydrolized, unit assumed
Kl. aerogenes SS 71 = type: cell-based; conditions: Brain Heart Infusion, estolate and RV11-RV15 previously hydrolized, unit assumed
[2] = Histological examination of bronchi after SO2 inhalation; type: in vivo, Sprague Dawley male rats
B. subtilis ATCC 6633 = type: cell-based; conditions: Brain Heart Infusion, estolate and RV11-RV15 previously hydrolized, unit assumed
N. gonorreae SS 27 = type: cell-based; conditions: Brain Heart Infusion, estolate and RV11-RV15 previously hydrolized, unit assumed
E. coli SS 07 = type: cell-based; conditions: Brain Heart Infusion, estolate and RV11-RV15 previously hydrolized, unit assumed
Citrobacter SS 09 = type: cell-based; conditions: Brain Heart Infusion, estolate and RV11-RV15 previously hydrolized, unit assumed
Staph. albus SS 04 = type: cell-based; conditions: Brain Heart Infusion, estolate and RV11-RV15 previously hydrolized, unit assumed
Staph. albus SS 03 = type: cell-based; conditions: Brain Heart Infusion, estolate and RV11-RV15 previously hydrolized, unit assumed
E. coli SS 05 = type: cell-based; conditions: Brain Heart Infusion, estolate and RV11-RV15 previously hydrolized, unit assumed
E. cloacae SS 07 = type: cell-based; conditions: Brain Heart Infusion, estolate and RV11-RV15 previously hydrolized, unit assumed
E. coli SS 04 = type: cell-based; conditions: Brain Heart Infusion, estolate and RV11-RV15 previously hydrolized, unit assumed
Pr. mirabilis SS 09 = type: cell-based; conditions: Brain Heart Infusion, estolate and RV11-RV15 previously hydrolized, unit assumed
[3] = Hematic levels in the healthy volunteer; type: in vivo, healthy volunteers; conditions: oral, 500 mg of erythromycin, average
Description: For the dosing, the microbiological method using a B. subtilis strain was adopted.

[4] = in vivo; for Hematic levels in the rat: po, 100 mg/kg
Br. melitensis SS 19 = type: cell-based; conditions: unit assumed
H. pertussis SS 03 = type: cell-based; conditions: Brain Heart Infusion, estolate and RV11-RV15 previously hydrolized, unit assumed
Sr. marcescens SS 03 = type: cell-based; conditions: Brain Heart Infusion, estolate and RV11-RV15 previously hydrolized, unit assumed
[5] = Mucolytic activity: obstruction of the bronchial tract after SO2 inhalation; type: in vivo, Sprague Dawley male rats; conditions: SO2, 15 days
B. cereus ATCC 11778 = type: cell-based; conditions: Brain Heart Infusion, estolate and RV11-RV15 previously hydrolized, unit assumed
D. pneumoniae SS 23 [6] = assay: Experimental infection induced by D. pneumoniae SS 23; type: in vivo, Swiss white mice
Protocol: (§1) Swiss white mice of 20 g body weight were used, infected by parenteral administration of lethal amounts of pathogenic […] of Staph. aureus SS 07 and D. pneumoniae SS 23.
(§2) The antibiotics were administered at the time of injecting the infecting germ and 6 and 24 hours later. On the basis of the survival after 7 days, the ED50 values were determined, as reported in the following table II and III, wherein the reliability limits are indicated in brackets.

S. infantis SS 08 = type: cell-based; conditions: Brain Heart Infusion, estolate and RV11-RV15 previously hydrolized, unit assumed
Cl. tetani SS 17 = type: cell-based; conditions: Brain Heart Infusion, estolate and RV11-RV15 previously hydrolized, unit assumed
[7] = tested on: Strept. haemolyticus SS 17; type: cell-based; conditions: Brain Heart Infusion, estolate and RV11-RV15 previously hydrolized, unit assumed
Kl. pneumoniae SS 04 = type: cell-based; conditions: Brain Heart Infusion, estolate and RV11-RV15 previously hydrolized, unit assumed
Description: (§3) In the following table I the MIC/ml values are indicated corresponding to the lowest concentration capable of inducing a complete inhibition of the bacterial development.

H. tubercolosis SS 03 = type: cell-based; conditions: Brain Heart Infusion, estolate and RV11-RV15 previously hydrolized, unit assumed
Description: as §3

Citrobacter SS 05 = type: cell-based; conditions: Brain Heart Infusion, estolate and RV11-RV15 previously hydrolized, unit assumed
B. subtilis SS 127 = type: cell-based; conditions: Brain Heart Infusion, estolate and RV11-RV15 previously hydrolized, unit assumed
N. meningitidis SS 04 = type: cell-based; conditions: Brain Heart Infusion, estolate and RV11-RV15 previously hydrolized, unit assumed
Staph. aureus SS 08 = type: cell-based; conditions: Brain Heart Infusion, estolate and RV11-RV15 previously hydrolized, unit assumed
Ps. aeruginosa SS 10 = type: cell-based; conditions: Brain Heart Infusion, estolate and RV11-RV15 previously hydrolized, unit assumed
D. pneumoniae SS 23 [8] = type: cell-based; conditions: Brain Heart Infusion, estolate and RV11-RV15 previously hydrolized, unit assumed
E. coli SS 06 = type: cell-based; conditions: Brain Heart Infusion, estolate and RV11-RV15 previously hydrolized, unit assumed
Br. abortus SS 7 = type: cell-based; conditions: Brain Heart Infusion, estolate and RV11-RV15 previously hydrolized, unit assumed
Staph. aureus SS 07 [9] = type: cell-based; conditions: Brain Heart Infusion, estolate and RV11-RV15 previously hydrolized, unit assumed
Strept. faecalis SS 19 = type: cell-based; conditions: Brain Heart Infusion, estolate and RV11-RV15 previously hydrolized, unit assumed
Staph. aureus SS 07 [10] = assay: Experimental infection induced by Staph. aureus SS 07; type: in vivo, Swiss white mice; conditions: Staphylococcus aureus, SS07, in Mus musculus, sc, 168 h, read-out: ED50 (reliability limits)
Protocol: as §1, §2

CCC(=O)O[C@H]1[C@H](O[C@@H]2[C@@H](C)[C@H](O[C@H]3C[C@@](C)(OC)[C@@H](O)[C@H](C)O3)[C@@H](C)C(=O)O[C@H](CC)[C@@](C)(O)[C@H](O)[C@@H](C)C(=O)[C@H](C)C[C@@]2(C)O)O[C@H](C)C[C@@H]1N(C)C [RV14, erythromycin-monopropionate-S-carboxymethyl cysteinate]
MIC (C. diphtheriae SS 19): 0.01 µg/mL (≈ 0.0127 µM) | MIC (H. influentiae SS 02): 1.5 µg/mL (≈ 1.9 µM) | MIC (S. lutea ATCC 9341): 0.01 µg/mL (≈ 0.0127 µM) | MIC (S. heidelberg SS 18): 100 µg/mL (≈ 127 µM) | MIC (E. aerogenes SS 011): 50 µg/mL (≈ 63.3 µM) | LD50 (reliability limits) (Acute toxicity; po, 14400 min): 3000 mg·kg | MIC [1]: 0.8 µg/mL (≈ 1.01 µM) | MIC (B. anthranis SS 09): 0.8 µg/mL (≈ 1.01 µM) | MIC (C. albicans SS 04): 200 µg/mL (≈ 253 µM) | MIC (Staph. aureus SS 09): 0.1 µg/mL (≈ 0.127 µM) | MIC (B. anthranis SS 08): 0.4 µg/mL (≈ 0.506 µM) | MIC (Pr. vulgaris SS 10): > 200 µg/mL | MIC (Kl. aerogenes SS 71): 100 µg/mL (≈ 127 µM) | histological appearance of non obstructed bronchi ([2]; oral, 500 mg/kg, free non obstructed): presence of bronchi having almost normal appearance | histological appearance of obstructed bronchial tract ([2]; oral, 500 mg/kg): fully like that of the control animals | MIC (B. subtilis ATCC 6633): 0.025 µg/mL (≈ 0.0316 µM) | MIC (N. gonorreae SS 27): 0.8 µg/mL (≈ 1.01 µM) | MIC (E. coli SS 07): 50 µg/mL (≈ 63.3 µM) | MIC (Citrobacter SS 09): > 200 µg/mL | MIC (Staph. albus SS 04): 0.05 µg/mL (≈ 0.0633 µM) | MIC (Staph. albus SS 03): 0.1 µg/mL (≈ 0.127 µM) | MIC (E. coli SS 05): 50 µg/mL (≈ 63.3 µM) | MIC (E. cloacae SS 07): > 200 µg/mL | MIC (E. coli SS 04): 100 µg/mL (≈ 127 µM) | MIC (Pr. mirabilis SS 09): > 200 µg/mL | Hematic levels in the healthy volunteer ([3]; 0.30 hours, 18 min): 1.20 µg/mL | Hematic levels in the healthy volunteer ([3]; 1 hour, 60 min): 1.78 µg/mL | Hematic levels in the healthy volunteer ([3]; 2 hours, 120 min): 2.28 µg/mL | Hematic levels in the healthy volunteer ([3]; 3 hours, 180 min): 1.60 µg/mL | Hematic levels in the healthy volunteer ([3]; 4 hours, 240 min): 1.21 µg/mL | Hematic levels in the rat ([4]; 0.3 h): 0.72 µg/mL | Hematic levels in the rat ([4]; 1 h): 1.85 µg/mL | Hematic levels in the rat ([4]; 2 h): 2.55 µg/mL | Hematic levels in the rat ([4]; 3 h): 1.39 µg/mL | Hematic levels in the rat ([4]; 4 h): 0.65 µg/mL | Hematic levels in the rat ([4]; 5 h): 0.54 µg/mL | Hematic levels in the rat ([4]; 6 h): 0.07 µg/mL | absorption by oral route (in words) ([4]; rat): absorbed by oral route in a rate practically analogous to that of erythromycin estolate | MIC (Br. melitensis SS 19): 3 µg/mL (≈ 3.8 µM) | MIC (H. pertussis SS 03): 0.4 µg/mL (≈ 0.506 µM) | MIC (Sr. marcescens SS 03): 200 µg/mL (≈ 253 µM) | Partial obstruction (% incidence) ([5]; oral, 500 mg/kg): 13.33% | Total obstruction, compact plug (% incidence) ([5]; oral, 500 mg/kg): 26.66% | Total obstruction, nodular mass (% incidence) ([5]; oral, 500 mg/kg): 6.66% | Total obstruction, pimply mass (% incidence) ([5]; oral, 500 mg/kg): 6.66% | MIC (B. cereus ATCC 11778): 0.4 µg/mL (≈ 0.506 µM) | ED50 (reliability limits) (D. pneumoniae SS 23 [6]; os, D. pneumoniae SS 23, mg/kg of erythromycin, survival after 7 days, 10080 min): 123.74 (148.77-102.92) mg/kg | MIC (S. infantis SS 08): 100 µg/mL (≈ 127 µM) | MIC (Cl. tetani SS 17): 0.2 µg/mL (≈ 0.253 µM) | MIC [7]: 1.5 µg/mL (≈ 1.9 µM) | MIC (Kl. pneumoniae SS 04): 100 µg/mL (≈ 127 µM) | MIC (H. tubercolosis SS 03): 50 µg/mL (≈ 63.3 µM) | MIC (Citrobacter SS 05): > 200 µg/mL | MIC (B. subtilis SS 127): 0.05 µg/mL (≈ 0.0633 µM) | MIC (N. meningitidis SS 04): 0.8 µg/mL (≈ 1.01 µM) | MIC (Staph. aureus SS 08): 0.05 µg/mL (≈ 0.0633 µM) | MIC (Ps. aeruginosa SS 10): 100 µg/mL (≈ 127 µM) | MIC (D. pneumoniae SS 23 [8]): 0.05 µg/mL (≈ 0.0633 µM) | MIC (E. coli SS 06): 25 µg/mL (≈ 31.6 µM) | MIC (Br. abortus SS 7): 12 µg/mL (≈ 15.2 µM) | MIC (Staph. aureus SS 07 [9]): 0.025 µg/mL (≈ 0.0316 µM) | MIC (Strept. faecalis SS 19): 0.05 µg/mL (≈ 0.0633 µM)

CCOC(=O)CCC(=O)O[C@H]1[C@H](O[C@@H]2[C@@H](C)[C@H](O[C@H]3C[C@@](C)(OC)[C@@H](O)[C@H](C)O3)[C@@H](C)C(=O)O[C@H](CC)[C@@](C)(O)[C@H](O)[C@@H](C)C(=O)[C@H](C)C[C@@]2(C)O)O[C@H](C)C[C@@H]1N(C)C [erythromycin ethyl succinate, reference compound]
bronchial epithelium reaction ([2]; i.m., 250 mg/kg): the bronchial epithelium reacts through a proliferation of cells, mainly cup-shaped cells | histological appearance of obstructed bronchial tract ([2]; i.m., 250 mg/kg): the bronchial obstruction is formed by abundant mucus admixed with fibrin | Partial obstruction (% incidence) ([5]; i.m., 250 mg/kg): 20% | Total obstruction, compact plug (% incidence) ([5]; i.m., 250 mg/kg): 53.33% | Total obstruction, nodular mass (% incidence) ([5]; i.m., 250 mg/kg): 26.66% | Total obstruction, pimply mass (% incidence) ([5]; i.m., 250 mg/kg): 13.33% | ED50 (D. pneumoniae SS 23 [6]; Streptococcus pneumoniae, SS23, in Mus musculus, sc, 168 h, read-out: ED50 (reliability limits)): 54.2 mg/kg | ED50 (Staph. aureus SS 07 [10]): 1.03 mg/kg

CC[C@H]1OC(=O)[C@H](C)[C@@H](O[C@H]2C[C@@](C)(OC)[C@@H](O)[C@H](C)O2)[C@H](C)[C@@H](O[C@@H]2O[C@H](C)C[C@H](N(C)C)[C@H]2O)[C@](C)(O)C[C@@H](C)C(=O)[C@H](C)[C@@H](O)[C@]1(C)O [erythromycin hydrochloride, reference compound]
LD50 at 240 h (Acute toxicity; iv, mortality 10 days after treatment, mice, read-out: LD50 (reliability limits)): 377 mg/kg
